# Measurements published in PubChem BioAssay (NCI).
# Several values for one entry are separate records, joined by “and”; a condition that tells them apart may be missing. Equal entries are not always repeated.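 Results reflect a 48-hour exposure of cells in 96-well plates to compound at five concentrations. GI50 is the concentration that inhibits growth by half. TGI is the concentration that stops growth completely.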
# Experiments:
# Experiment in all cases: inhibition of tumour cell growth, NCI panel, 48 h
# HS 578T breast = system: HS 578T breast
# 786-0 renal = system: 786-0 renal
# DU-145 prostate = system: DU-145 prostate
# K-562 leukemia = system: K-562 leukemia
# OVCAR-3 ovarian = system: OVCAR-3 ovarian
# RPMI-8226 leukemia = system: RPMI-8226 leukemia
# SK-MEL-28 melanoma = system: SK-MEL-28 melanoma
# UO-31 renal = system: UO-31 renal
# DMS 273 small cell lung = system: DMS 273 small cell lung
# LXFL 529 NSCLC = system: LXFL 529 NSCLC
SMILES,GI50 (HS 578T breast),TGI (HS 578T breast),GI50 (786-0 renal),TGI (786-0 renal),GI50 (DU-145 prostate),TGI (DU-145 prostate) [µM],GI50 (K-562 leukemia),TGI (K-562 leukemia) [µM],GI50 (OVCAR-3 ovarian),TGI (OVCAR-3 ovarian),GI50 (RPMI-8226 leukemia),TGI (RPMI-8226 leukemia),GI50 (SK-MEL-28 melanoma),TGI (SK-MEL-28 melanoma),GI50 (UO-31 renal),TGI (UO-31 renal),TGI (DMS 273 small cell lung) [µM],TGI (LXFL 529 NSCLC) [µM]
O=S(=O)(Nc1ccccc1Cl)c1ccc(-c2cnc(C3CC3)o2)cc1,0.346 µM,> 94.9 µM,0.809 µM,> 85.1 µM,0.94 µM,> 100,0.0845 µM,> 100,0.303 µM,15.7 µM,0.541 µM,22.7 µM,3.34 µM,> 100 µM,0.832 µM,> 77.1 µM,–,–
Cc1ccc(SC(CCC(Sc2ccc(C)cc2)Sc2ccc(C)cc2)Sc2ccc(C)cc2)cc1,–,–,–,> 100 µM,–,–,–,> 100,–,> 100 µM,–,> 100 µM,–,> 100 µM,–,> 100 µM,> 100,–
COc1cccc(-c2cc(=O)c3cc(OC)ccc3[nH]2)c1,–,0.885 µM,0.15 µM,65.3 µM,0.186 µM,–,0.0288 µM,0.393,0.025 µM,0.384 µM and 0.0812 µM,0.0288 µM,–,0.612 µM and 0.0852 µM,> 100 µM,0.484 µM,> 100 µM,–,–
COc1ccc2c(C)cc(N/N=C/c3ccc(OC)c4ccccc34)nc2c1,–,32.8 µM,–,26.4 µM,–,16.4,–,32.3,–,9.02 µM,–,8.64 µM,–,31.6 µM,–,25.6 µM,–,–
COc1cccc(-c2nc3sccn3c2-c2ccnc(NCCCNS(=O)(=O)c3cccc(F)c3)c2)c1,3 µM,> 100 µM,4.49 µM,> 100 µM,3.04 µM,> 100,1.77 µM,> 100,3.06 µM,> 100 µM,1.29 µM,4.56 µM,2.96 µM,9.82 µM,1.25 µM,5.37 µM,–,–
C=C1C(O)C2C(=C(CCc3ccccc3)C13CC3)C(=O)C(C)(CO)C2O (centres undefined),14.3 µM,99.8 µM,> 100 µM,> 100 µM,> 100 µM,> 100,> 100 µM,> 100,> 100 µM,> 100 µM,22.2 µM,70.2 µM,> 100 µM,> 100 µM,> 100 µM,> 100 µM,–,–
O=C1Nc2ccccc2C12CCNC2Cc1ccccc1 (centres undefined),–,–,–,> 100 µM,–,–,–,> 100,–,> 100 µM,–,> 100 µM,–,> 100 µM,–,–,> 100,> 100
COc1ccc(-c2cn[nH]c2-c2cc(OC)c3c(c2)OCO3)cc1,0.311 µM,26.2 µM,0.585 µM,14.2 µM,0.402 µM,14.9,0.0467 µM,> 66.2,0.196 µM,0.596 µM,0.314 µM,14.5 µM,1.22 µM,28.5 µM,0.669 µM,23.1 µM,–,–
Cn1cc(C2=C(c3cn(CCCCN)c4ccccc34)C(=O)NC2=O)c2ccccc21,> 25 µM,> 25 µM,> 25 µM,> 25 µM,> 25 µM,> 25,> 25 µM,> 25,> 25 µM,> 25 µM,> 25 µM,> 25 µM,> 25 µM,> 25 µM,> 25 µM,> 25 µM,–,–
COc1ccc(-c2cc(=O)c3ccc(C)nc3[nH]2)cc1,–,> 100 µM,> 100 µM,> 100 µM,–,> 100,–,> 100,> 100 µM,> 100 µM,–,> 100 µM,–,> 100 µM,–,> 100 µM,–,–
CCOC(=O)c1sc(-c2ccc(OS(=O)(=O)c3ccc(Br)s3)c(C=O)c2)nc1C,10.6 µM,36.3 µM,2.75 µM,8.16 µM,6.81 µM,24.8,3.17 µM,> 100,2.48 µM,6.71 µM,1.94 µM,5.18 µM,11.4 µM,33.4 µM,2.63 µM,9.76 µM,–,–
CC1CCC2(CC1)NN=c1s/c(=C\c3ccc(O)cc3)c(=O)n1N2 (centres undefined),–,–,–,> 100 µM,–,–,–,> 100,–,> 100 µM,–,> 100 µM,–,> 100 µM,–,–,> 100,> 100
Nc1ccccc1C(=O)CC1OC(=O)c2ccccc21 (centres undefined),–,> 100 µM,–,> 100 µM,–,> 100,–,> 100,–,> 100 µM,–,> 100 µM,–,> 100 µM,–,> 100 µM,–,–
Clc1nc(Cl)c2ncn(Cc3cccc(Cn4cnc5c(Cl)nc(Cl)nc54)c3)c2n1,2.69 µM,7.29 µM,12.3 µM,26.6 µM,1.72 µM,3.09,3.11 µM,17.1,2.38 µM,7.22 µM,2.59 µM,11.1 µM,4.25 µM,22.1 µM,1.92 µM,3.55 µM,–,–
Cc1cc(=O)oc2cc(OC(=O)N(C)C)c(Cl)cc12,–,> 100 µM,–,> 100 µM,–,> 100,–,> 100,–,> 100 µM,–,> 100 µM,–,> 100 µM,–,> 100 µM,–,–
CC(C)(C)C(=O)c1c(C(F)(F)F)n([O-])c2ccccc2[n+]1=O,0.185 µM,0.728 µM,0.729 µM,2.46 µM,0.356 µM,0.892,0.757 µM,2.38,0.174 µM,0.698 µM,0.0234 µM,0.246 µM,1.13 µM,6.12 µM,0.342 µM,0.729 µM,–,–
FC(F)c1nc2ccccc2n1-c1nc(N2CCOCC2)nc(N2CCOCC2)n1,0.143 µM and 0.0684 µM,0.995 µM and 0.773 µM,0.146 µM and 0.223 µM,1.43 µM and 2.94 µM,0.42 µM and 0.432 µM,> 100,4.09 µM and 5.15 µM,> 100,0.204 µM and 0.281 µM,3.44 µM and 5.67 µM,0.482 µM and 0.345 µM,> 7.2 µM and 4.26 µM,0.174 µM and 0.244 µM,1.87 µM and 3.79 µM,0.046 µM and 0.103 µM,0.835 µM and 1.38 µM,–,–
Clc1ccc(SC(/C=C/NNC2=NC(c3ccccc3)C(c3ccccc3)=NN2)c2ccccc2)cc1 (centres undefined),–,–,–,> 100 µM,–,–,–,53.1,–,60.5 µM,–,30.3 µM,–,69.2 µM,–,38.8 µM,> 100,–
